This passage reports EC50 results from PubChem BioAssay AID1339 (NMMLSC, 2008).

As a reminder, the EC50 is the midpoint of the concentration-response curve.

This assay addresses Ras-related C3 botulinum toxin substrate 1 (Homo sapiens) (UniProt P63000). The assay is described as follows: inhibitors of activated mutant Rac1 GTP binding, dose response, biochemical, multiplex, GST-Rac1 beads, Bodipy-FL-GTP, flow cytometry (AID 1339). In general terms: A flow cytometer gives signals particle by particle.
As to `COc1cc(C(=O)OCC(=O)Nc2ccc3c(c2)OC(F)(F)O3)ccc1OCc1c(C)noc1C`, the EC50 was 14.2 µM.
Regarding `Cc1cc(C)cc(OCCSc2nc3ccccc3n2CC(=O)O)c1`, the EC50 is 23.6 µM.
`COc1cccc(NC(=O)COC(=O)/C=C/c2ccc(Cl)cc2Cl)c1`: the EC50 was 13.3 µM.
As to `CNC(=S)N=Nc1c(O)[nH]c2ccccc12`, the EC50 was 91.6 µM.
Turning to `CCCOc1ccc(OCCSc2nc3ccccc3n2CC(=O)O)cc1`, the EC50 was 35.6 µM.
As for `O=C(O)c1cc(Sc2ccc(F)cc2)nc2ccccc12`, the EC50 is 46.8 µM.
Take `O=C(C#Cc1ccccc1)c1ccc([N+](=O)[O-])cc1`: the EC50 was 6.48 µM.
In the case of `COc1ccccc1OCCn1cc(C(=O)O)c2ccc(Cl)cc21`, the EC50 is 1.75 µM.
Turning to `O=C(O)/C=C/c1cn(Cc2ccccc2)nc1-c1cccs1`, the concentration for a half-maximal effect (EC50) was 1.94 µM.
On to `CCOc1ccc(/C=C2\SC(N3CCc4ccccc4C3)=NC2=O)cc1`, for which the EC50 is 10.6 µM.
The value for `Cc1cc(OCCSc2nc3ccccc3n2CC(=O)O)ccc1Cl` was 25.1 µM; that for `CCN(CC)c1ccc2cc(-c3nc(-c4ccc(OC)cc4)cs3)c(=O)oc2c1` was 0.553 µM.
For `COc1ccccc1NCc1sc(C(=O)O)cc1C`, the concentration for a half-maximal effect (EC50) is 4.26 µM.
Consider `Cc1ccc(C)c(OCCn2cc(C(=O)O)c3ccccc32)c1`, for which the EC50 is 0.222 µM.
Then `Cc1ccc(SC(CC(=O)c2ccc(C(C)(C)C)cc2)C(=O)O)cc1` (stereo not given), with 12.3 µM.
For the molecule `O=C(c1nnsc1S(=O)(=O)c1ccc(Cl)cc1)N1CCOCC1`, the EC50 was 13.7 µM.
As to `COc1ccc(OC)c(-c2c3cc(O)c(=O)cc-3oc3cc(O)c(O)cc23)c1`, the EC50 was 0.28 µM.
As to `OC(CNCCc1ccc(Cl)cc1)COc1ccc2ccccc2c1` (stereo not given), the EC50 was 39 µM.
Then `Cc1cc(C(=O)Cn2nc(C(=O)O)c3ccccc3c2=O)c(C)n1-c1ccc(OC(F)F)cc1`, with 3.55 µM.
For `CC(=O)c1ccc(C#CC(=O)c2ccc([N+](=O)[O-])cc2)cc1`, the EC50 was 1.22 µM.
The value for `Cc1nn(Cc2ccccc2)c(Cl)c1C(=O)O` was 21.7 µM.
`COC(=O)c1cccnc1SCCc1ccccc1`: the EC50 was 36.6 µM.
Consider `Cc1cc(NC(=O)CSc2nc(-c3ccccc3)c(C#N)c(=O)[nH]2)no1`, for which the EC50 is 12.9 µM.
For `CS(=O)(=O)c1ccc(C(=O)OCC(=O)NC(=O)C2CCCCC2)cc1[N+](=O)[O-]`, the EC50 was 43.2 µM.
Take `CCn1nc(C(=O)OCC(=O)c2cc(C)n(Cc3cccs3)c2C)c2ccccc2c1=O`: the EC50 was 45.6 µM.
For `COc1ccc(C(=O)c2c(O)cc(-c3ccc(OC)cc3)oc2=O)cc1`, the EC50 was 3.57 µM.
With `O=C(O)c1cn(CCOc2ccccc2)c2ccccc12`, the EC50 was 0.857 µM.
`Cc1ccc(C(C)C)c(OCCSc2nc3ccccc3n2CC(=O)O)c1`: the EC50 is 33.5 µM.
Regarding `O=C(C#Cc1ccc(F)cc1)c1ccc([N+](=O)[O-])cc1`, the EC50 is 3.92 µM.
`Cc1cc(C(=O)Oc2ccccc2C(=O)O)c(C)o1`: the EC50 is 0.665 µM.
For the molecule `COc1ccc(C(=O)Nc2cc(Cl)ccc2C(=O)O)cc1`, the EC50 was 22.1 µM.
For `CCOC(=O)c1cc([N+](=O)[O-])c([N+](=O)[O-])cc1NC(C)=O`, the EC50 is 31.5 µM.
For `O=C(O)c1ccccc1NCc1c(Cl)cccc1Cl`, the EC50 is 34.1 µM.
The value for `Cc1ccc(-n2c(-c3cnccn3)n[nH]c2=S)c(Br)c1` was 28 µM; that for `CC(=O)c1c(C)[nH]c(C(=O)N2CCc3ccccc3C2)c1C` was 2.53 µM.
Then `COc1cccc(CNCc2sc(C(=O)O)cc2C)c1`, with 25.9 µM; and `Cc1ccc(C(C)C)c(OCCn2cc(C(=O)O)c3ccccc32)c1`, with 0.635 µM.
Consider `O=C(O)c1cc(Sc2ccc(Cl)cc2)nc2ccccc12`, for which the EC50 is 69.4 µM.
On to `O=C(O)c1ccccc1Sc1ncnc2sc3c(c12)CCC3`, for which the EC50 was 1.08 µM.
Turning to `O=C(Nc1nnc(-c2ccc3c(c2)OCCO3)o1)c1ccc(Cc2ccccc2)cc1`, the EC50 is 10.2 µM.
As to `N#Cc1c(-c2ccccc2)nc(SCC(=O)Nc2ccccc2)[nH]c1=O`, the EC50 is 29.5 µM.
As to `O=C(CSc1ncnc2scc(-c3ccccc3)c12)N1CCN(Cc2ccc3c(c2)OCO3)CC1`, the EC50 is 61.1 µM.
For `CC(C)(C)C#CC(=O)c1ccc([N+](=O)[O-])cc1`, the EC50 was 65.1 µM.
As for `Cc1cc(C)c(C)c(C(=O)c2ccccc2C(=O)O)c1C`, the EC50 is 1.52 µM.
Then `CC(=O)Nc1cccc(C#CC(=O)c2ccc([N+](=O)[O-])cc2)c1`, with 14.2 µM; and `Cc1ccc(Nc2cc(C(=O)O)c3ccccc3n2)cc1C`, with 5.56 µM; and `CCc1ccc(NS(=O)(=O)c2ccc3[nH]cc(C(=O)N4CCc5ccccc54)c(=O)c3c2)cc1`, with 20.6 µM.
Regarding `COc1ccc(Cl)cc1NCc1sc(C(=O)O)cc1C`, the EC50 is 2.19 µM.
As for `O=[N+]([O-])c1cc2oc3c(c2c(C=NCc2ccccc2)c1O)CCCC3`, the EC50 is 5.79 µM.
Consider `Cc1ccccc1OCCn1c(C)c(C(=O)O)c2ccccc21`, for which the EC50 was 0.625 µM.
On to `COc1ccccc1OCc1cccc(C(=O)O)c1`, for which the EC50 is 9.53 µM.
`CCOC(=O)c1c(NC(=O)/C=C/c2ccc3c(c2)OCO3)sc(C)c1CC`: the EC50 was 30.1 µM.
On to `O=C(C#Cc1ccccc1)c1cccc([N+](=O)[O-])c1`, for which the EC50 is 23.5 µM.
Consider `CSc1ccc(/C=N/NC(=O)c2cc(O)cc(O)c2)cc1`, for which the EC50 is 55.4 µM.
Turning to `Cc1ccccc1C(=O)Nc1ccc2c(C#N)c3nc4ccccc4nc3n2c1`, the EC50 was 0.889 µM.
